Assay results as given in US20250032490A1, “THERAPEUTIC REGIMENS FOR TREATMENT OF PAROXYSMAL NOCTURNAL HEMOGLOBINURIA” (Achillion Pharmaceuticals, Inc., priority 2017, published 2025).

Tests used:
C3 fragment deposition = assay: Phase 2 study in PNH subjects: C3 fragment deposition percentage; assay type: in vivo, human
Description: C3 fragment deposition is measured using blood by flow cytometry that would be known to those of skill in the art. In a typical protocol, a blood sample is collected from eculizumab-treated PNH patients or healthy individuals. Erythrocytes are harvested by centrifugation, washed with PBS several times until the supernatant remains clear. C3 fragment deposition on the PNH erythrocytes membrane is measured by flow cytometry using FITC-conjugated anti-C3c, PE conjugated anti-CD47 and APC-conjugated anti-CD59 following dilution of reaction mixtures in FC buffer. Intact and fragmented PNH erythrocytes are identified by anti-CD47 (positive) and anti-CD59 (negative) staining C3 fragment deposition is assessed by anti-C3c staining.
(§1) The starting dose of compound 1 is based upon group assignment. The Group 1 dose is 100mg three times daily (TID). The Group 2 dose is 150 mg TID. The Group 3 dose is 200 mg TID. The Group 4 dose will receive the optimal dose determined from Groups 1-3.
(§2) All doses are taken approximately 15-30 minutes after completion of a meal or snack.
(§3) This will be followed by a long-term extension phase.
(§4) 2 subjects in the first dose level of 100 mg TID have been completed and data collected through 4 weeks. Data collected include lactate dehydrogenase (LDH) levels, hemoglobin levels, reticulocytes, PNH red blood cells (Type III) percentage, C3 Fragment Deposition percentage, and bilirubin levels and their changes from baseline.
Measurement of C3 fragment deposition percentage is a pharmacodynamic marker that is measured by flow cytometry of subject plasma samples collected on Day 1, Week 2, and Week 4 (FIGS. 17A & 17B and Table 19). Uncontrolled C3 activation due to the absence of CD55 on red blood cells may result in opsonization of red blood cells, leading to clinically meaningful extravascular hemolysis.

[1] = system: PNH Type III red blood cells; assay: Phase 2 study in PNH subjects: PNH red blood cell (Type III) percentage; assay type: in vivo, human; settings: Compound 1 100 mg TID + IV eculizumab
Description: as §1, §2, §3, §4
Measuring the percentage of PNH Type III red blood cells is a pharmacodynamic marker that is measured by flow cytometry, which provides information on cell size, shape, and percentage of a type of cell. This assay determines whether CD55 and CD59 are missing from the surface of red blood cells. These proteins help protect normal cells from hemolysis. PNH Type III cells are extremely sensitive to the complement system and hemolysis. PNH Type III cell percentage is measured from plasma drawn on Day 1, Week 2, and Week 4 (FIGS. 16A & 16B and Table 18).

[2] = Phase 2 study in PNH subjects: hemoglobin levels; assay type: in vivo, human; settings: Compound 1 100 mg TID + IV eculizumab
Description: as §1, §2, §3, §4
Free hemoglobin is a pharmacodynamic marker that is measured from blood drawn on Day 1, Week 1, Week 2, and Week 4 (FIGS. 14A & 14B and Table 16). Low levels of hemoglobin is a sign of hemolytic anemia.

[3] = Phase 2 study in PNH subjects: lactate dehydrogenase levels; assay type: in vivo, human; settings: Compound 1 100 mg TID + IV eculizumab
Description: as §1
All doses are taken approximately 15-30 minutes after completion of a meal or snack. […]
as §4
Lactate dehydrogenase is a pharmacodynamic marker that is measured from blood drawn on Day 1, Week 1, Week 2, and Week 4 (FIGS. 13A & 13B and Table 15). High levels of LDH in the blood can be an indication of hemolysis.

[4] = system: C3 fragment deposition on rabbit erythrocytes; assay: C3 fragment deposition on rabbit erythrocytes (flow cytometry); assay type: cell-based; settings: Oryctolagus cuniculus, Erythrocyte; 20% C5-depleted normal human serum; read-out: IC50, inhibition of C3 fragment deposition on rabbit erythrocytes
Description: Rabbit erythrocytes, C5-depleted normal human serum (C5-Dpl NHS), gelatin veronal buffer (GVB) without Ca^++ and Mg (GVB^0), 100 mM MgCl2+100 mM EGTA (MgEGTA) were obtained from Complement Technology Inc. (Tyler, TX). GVB^0·MgEGTA was prepared by mixing GVB^0 and 100 mM MgEGTA in a 9:1 ratio. FITC-conjugated anti-C3c antibody (cat#ab4212) and Alexa Fluor® 647-conjugated anti human CD59 antibody (cat#: ab187769) were purchased from Abcam (Cambridge, MA).
Reactions were incubated at 37° C. for 15 minutes, the reactions were quenched by addition of EDTA at a final concentration of 20 mM. Cells were stained with a FITC-conjugated anti-C3c antibody at a dilution of 1:200 and C3 fragment deposition on the surface of rabbit erythrocytes was assessed by flow cytometry with BD Accuri C6 cytometer (BD Biosciences, San Jose, CA). Forward and side scatter parameters were used to gate intact erythrocytes. Controls included cells labeled with FITC-conjugated antibody isotype control. IC50 values from each experiment were determined by curve-fitting of experimental data (the % C3 fragment-positive cells at increasing concentrations of inhibitor) to the four-parameter sigmoidal dose-response equation using non-linear regression analysis (Prism Software, GraphPad, La Jolla, CA).

[5] = subject 003-001, DAY 1 (baseline)
[6] = subject 003-002, DAY 1 (baseline)

CC(=O)c1nn(CC(=O)N2C[C@H](F)C[C@H]2C(=O)Nc2cccc(Br)n2)c2ccc(-c3cnc(C)nc3)cc12 [Compound 1, (2S,4R)-1-(2-(3-acetyl-5-(2-methylpyrimidin-5-yl)-1H-indazol-1-yl)acetyl)-N-(6-bromopyridin-2-yl)-4-fluoropyrrolidine-2-carboxamide]
C3 FRAGMENT DEPOSITION (%) CFB (change from baseline) (C3 fragment deposition; PNH subject 003-001, DAY 1): 0.00%
C3 FRAGMENT DEPOSITION (%) Observed (C3 fragment deposition; PNH subject 003-001, DAY 1 (baseline), flow cytometry): 2.60%
C3 FRAGMENT DEPOSITION (%) CFB (change from baseline) (C3 fragment deposition; PNH subject 003-001, WEEK 2): −0.50%
C3 FRAGMENT DEPOSITION (%) Observed (C3 fragment deposition; PNH subject 003-001, WEEK 2, flow cytometry): 2.10%
C3 FRAGMENT DEPOSITION (%) CFB (change from baseline) (C3 fragment deposition; PNH subject 003-001, WEEK 4): −0.50%
C3 FRAGMENT DEPOSITION (%) Observed (C3 fragment deposition; PNH subject 003-001, WEEK 4, flow cytometry): 2.10%
C3 FRAGMENT DEPOSITION (%) CFB (change from baseline) (C3 fragment deposition; PNH subject 003-002, DAY 1): 0.00%
C3 FRAGMENT DEPOSITION (%) Observed (C3 fragment deposition; PNH subject 003-002, DAY 1 (baseline), flow cytometry): 4.20%
C3 FRAGMENT DEPOSITION (%) CFB (change from baseline) (C3 fragment deposition; PNH subject 003-002, WEEK 2): −3.10%
C3 FRAGMENT DEPOSITION (%) Observed (C3 fragment deposition; PNH subject 003-002, WEEK 2, flow cytometry): 1.10%
C3 FRAGMENT DEPOSITION (%) CFB (change from baseline) (C3 fragment deposition; PNH subject 003-002, WEEK 4): −3.10%
C3 FRAGMENT DEPOSITION (%) Observed (C3 fragment deposition; PNH subject 003-002, WEEK 4, flow cytometry): 1.10%
PNH RBC (TYPE III) Observed [1, 5]: 41%
PNH RBC (TYPE III) CFB (change from baseline) ([1]; subject 003-001, DAY 1): 0%
PNH RBC (TYPE III) CFB (change from baseline) ([1]; subject 003-001, WEEK 2): 21%
PNH RBC (TYPE III) Observed ([1]; subject 003-001, WEEK 2): 62%
PNH RBC (TYPE III) CFB (change from baseline) ([1]; subject 003-001, WEEK 4): 29%
PNH RBC (TYPE III) Observed ([1]; subject 003-001, WEEK 4): 70%
PNH RBC (TYPE III) Observed [1, 6]: 50%
PNH RBC (TYPE III) CFB (change from baseline) ([1]; subject 003-002, DAY 1): 0%
PNH RBC (TYPE III) CFB (change from baseline) ([1]; subject 003-002, WEEK 2): 10%
PNH RBC (TYPE III) Observed ([1]; subject 003-002, WEEK 2): 60%
PNH RBC (TYPE III) CFB (change from baseline) ([1]; subject 003-002, WEEK 4): 18%
PNH RBC (TYPE III) Observed ([1]; subject 003-002, WEEK 4): 68%
HEMOGLOBIN Observed [2, 5]: 5.0 g/dL
HEMOGLOBIN CFB (change from baseline) ([2]; subject 003-001, DAY 1): 0.0 g/dL
HEMOGLOBIN CFB (change from baseline) ([2]; subject 003-001, WEEK 1): 1.1 g/dL
HEMOGLOBIN Observed ([2]; subject 003-001, WEEK 1): 6.1 g/dL
HEMOGLOBIN CFB (change from baseline) ([2]; subject 003-001, WEEK 2): 2.0 g/dL
HEMOGLOBIN Observed ([2]; subject 003-001, WEEK 2): 7.0 g/dL
HEMOGLOBIN CFB (change from baseline) ([2]; subject 003-001, WEEK 4): 2.6 g/dL
HEMOGLOBIN Observed ([2]; subject 003-001, WEEK 4): 7.6 g/dL
HEMOGLOBIN Observed [2, 6]: 9.8 g/dL
HEMOGLOBIN CFB (change from baseline) ([2]; subject 003-002, DAY 1): 0.0 g/dL
HEMOGLOBIN CFB (change from baseline) ([2]; subject 003-002, WEEK 1): 1.4 g/dL
HEMOGLOBIN Observed ([2]; subject 003-002, WEEK 1): 11.2 g/dL
HEMOGLOBIN CFB (change from baseline) ([2]; subject 003-002, WEEK 2): 1.8 g/dL
HEMOGLOBIN Observed ([2]; subject 003-002, WEEK 2): 11.6 g/dL
HEMOGLOBIN CFB (change from baseline) ([2]; subject 003-002, WEEK 4): 2.9 g/dL
HEMOGLOBIN Observed ([2]; subject 003-002, WEEK 4): 12.7 g/dL
LDH Observed [3, 5]: 357 U/L
LDH CFB (change from baseline) ([3]; subject 003-001, DAY 1): 0 U/L
LDH CFB (change from baseline) ([3]; subject 003-001, WEEK 1): −83 U/L
LDH Observed ([3]; subject 003-001, WEEK 1): 274 U/L
LDH CFB (change from baseline) ([3]; subject 003-001, WEEK 2): −105 U/L
LDH Observed ([3]; subject 003-001, WEEK 2): 252 U/L
LDH CFB (change from baseline) ([3]; subject 003-001, WEEK 4): −86 U/L
LDH Observed ([3]; subject 003-001, WEEK 4): 271 U/L
LDH Observed [3, 6]: 210 U/L
LDH CFB (change from baseline) ([3]; subject 003-002, DAY 1): 0 U/L
LDH CFB (change from baseline) ([3]; subject 003-002, WEEK 1): −52 U/L
LDH Observed ([3]; subject 003-002, WEEK 1): 158 U/L
LDH CFB (change from baseline) ([3]; subject 003-002, WEEK 2): −40 U/L
LDH Observed ([3]; subject 003-002, WEEK 2): 170 U/L
LDH CFB (change from baseline) ([3]; subject 003-002, WEEK 4): −31 U/L
LDH Observed ([3]; subject 003-002, WEEK 4): 179 U/L
IC50 [4]: 96 ± 21 nM
